According to patent US20120129822A1, “COMPOSITION CONTAINING DIOSGENIN AND USE THEREOF TO IMPROVE AT LEAST ONE OF COGNITIVE DEFICITS ASSOCIATED WITH MENOPAUSAL SYNDROME” (TL & GM Chemical Company, priority 2010, published 2012):
Entries after “also recorded” stand apart in the source; their conditions may differ.

What was measured:
OVX rats with anxiety = assay: Learned helplessness test (day-2 active avoidance test, shuttle box), OVX rats with anxiety; type: in vivo, female Wistar rats; conditions: 23 days; for Avoidance response (number) / Failure response (number) / Escape response (number): 16 trials, mean±SEM
Procedure: (§1) Three daily dosages of diosgenin, i.e., 10, 50, or 100 mg/kg, were administered to the experimental animals in the following experiments. A proper amount of diosgenin (Sigma, USA, required for formulating a respective one of the three daily dosages) was mixed with 1 g of toast or raw dough (prepared by mixing flour and water in a ratio of 2:1 (wt/wt)), thereby forming a diosgenin-containing pellet. The experimental animals were orally administered with the diosgenin-containing pellets, starting about 4 weeks after ovariectomy.
(§2) A shuttle box used in Example 1 (AccuScan, USA) is composed of two equal compartments. Each of the compartments has a grid floor made of stainless steel bars. The compartments are separated by a wall having a central door. Specifically, the central door can be closed to separate the two compartments, or can be opened to allow the experimental animals to move freely between the two compartments therethrough. A conditioned stimulus (CS, a stimulus consisting of a tone (75 db) and a light (250 lux) and lasting 3 seconds) and an unconditioned stimulus (UCS, an electric foot shock (0.5 mA) lasting a maximum of 10 seconds) were administered to the experimental animals from the shuttle box under control of a computer. The shuttle box was thoroughly cleaned using 20% ethanol and was subsequently thoroughly dried before each of the experimental animals was tested.
(§3) The OVX rats with and without anxiety, which were identified in the preceding section A, were respectively randomly subdivided into 4 groups including a control group and three experimental groups (respectively designated as diosgenin groups 1-3). The diosgenin-containing pellets (made using diosgenin and toast), which were prepared according to the method as described in the section entitled “2. Diosgenin-containing pellets” of the Experimental Materials, respectively comprised the three daily dosages of diosgenin (i.e., 10, 50, and 100 mg/kg), and were respectively administered to the OVX rats in diosgenin groups 1-3 daily. In other words, the daily dosage of diosgenin administered to the OVX rats in diosgenin group 1 was 10 mg/kg, the daily dosage of diosgenin administered to the OVX rats in diosgenin group 2 was 50 mg/kg, and the daily dosage of diosgenin administered to the OVX rats in diosgenin group 3 was 100 mg/kg. The toast without diosgenin was administered daily to the OVX rats in the control group. After 23 days of administration, the OVX rats in each group were subjected to the following learned helplessness test so as to investigate the effect of diosgenin on the learning ability of the OVX rats with and without anxiety under stress.
(§4) The learned helplessness test in this example was conducted substantially according to the methods as described in W. F. Wang et al. (2007), Chin. J. Physiol., 50:63-68 and Y. T. Lee et al. (2008), Neuroreport, 19:1243-1247, except for minor modifications. The learned helplessness test in this example is generally described as follows.
(§5) The respective OVX rat was placed in one of the two compartments of the shuttle box, and was allowed to explore the two compartments through the central door, which was opened, for 1 minute. Afterward, the central door was closed. The respective OVX rat was subjected to 40 trials of inescapable CS-UCS pairing. Specifically, each of the 40 trials of inescapable CS-UCS pairing consisted of a CS and a subsequent UCS, and a mean interval between the two successive trials of inescapable CS-UCS pairing was 60 seconds (the interval between the two successive trials of inescapable CS-UCS pairing ranged from 50 to 70 seconds).
(§6) The respective OVX rat was placed in one of the two compartments of the shuttle box, and was allowed to explore the two compartments through the central door, which was opened, for 1 minute. Subsequently, the respective OVX rat was subjected to 16 trials of escapable CS-UCS pairing. […]

OVX rats without anxiety = assay: Learned helplessness test (day-2 active avoidance test, shuttle box), OVX rats without anxiety; type: in vivo, female Wistar rats; conditions: for Avoidance response (number) / Escape response (number) / Failure response (number): 23 days, 16 trials, mean±SEM
Procedure: as §1, §2, §3, §4, §5, §6

OVX mice = conditions: cited from earlier work
[1] = test system: breast cancer-burdened mice; conditions: cited from earlier work
OVX rats = assay: Object recognition test in open box; type: in vivo, female Wistar rats
Procedure: Three daily dosages of diosgenin, i.e., 10, 50, or 100 mg/kg, were administered to the experimental animals in the following experiments. A proper amount of diosgenin (Sigma, USA, required for formulating a respective one of the three daily dosages) was mixed with 1 g of toast or raw dough (prepared by mixing flour and water in a ratio of 2:1 (wt/wt)), thereby forming a diosgenin-containing pellet. The experimental animals were orally administered with the diosgenin-containing pellets, starting about 4 weeks after ovariectomy. The open box is made of black polyvinyl plastics. Three objects, which are respectively designated as A1, A2, and A3, are identical in terms of size, color, shape, and material, and have no specific scents. Each of the objects A1, A2, A3 was placed on the bottom of the open box and was spaced apart from a respective one of three corners C1, C2, C3 of the open box by 21 cm (see FIG. 2(A)). The object A3 was later replaced with an object B different from the object A3 in terms of size, color, shape, and material, and having no specific scents (see FIG. 2(B)). Prior to an experiment, each of the objects A1, A2, A3, B was unfamiliar to the experimental animals. The open box and the objects A1, A2, A3, B were thoroughly cleaned using 20% ethanol, and were subsequently thoroughly dried before each of the experimental animals was tested. After the female Wistar rats were raised in the animal room for 4 weeks, the same were subjected to ovariectomy according to the method as described in the section, entitled “1. Ovariectomy”, of the General Experimental Procedure. On the 29th day after the surgery, the OVX rats were randomly divided into four groups including a control group (n=20) and three experimental groups (respectively designated as diosgenin group 1 (n=20), diosgenin group 2 (n=12), and diosgenin group 3 (n=19)). The diosgenin-containing pellets (made using diosgenin and raw dough), which were prepared according to the method as described in the section entitled “2. […]

[2] = test system: OVX rats having clinical signs of osteoporosis; conditions: sustained delivery; cited from earlier work
[3] = diosgenin group 1, 10 mg/kg daily oral, n=12
[4] = diosgenin group 2, 50 mg/kg daily oral, n=11
[5] = diosgenin group 3, 100 mg/kg daily oral, n=11
[6] = diosgenin group 1, 10 mg/kg daily oral, n=7
[7] = diosgenin group 2, 50 mg/kg daily oral, n=6
[8] = diosgenin group 3, 100 mg/kg daily oral, n=6

In the case of `C[C@@H]1CC[C@@]2(OC1)O[C@H]1C[C@H]3[C@@H]4CC=C5C[C@@H](O)CC[C@]5(C)[C@H]4CC[C@]3(C)[C@H]1[C@@H]2C` [diosgenin], the “Avoidance response (number)” value (OVX rats with anxiety; [3]) is reported as 2.5 ± 0.9 number, the “Failure response (number)” value (OVX rats with anxiety; [3]) is reported as 4.2 ± 1.3 number and the “Escape response (number)” value (OVX rats with anxiety; diosgenin group 1, 10 mg/kg daily oral, n=12, p<0.05 vs control) is reported as 9.3 ± 1.3 number. For the same compound, the “Avoidance response (number)” value (OVX rats with anxiety; [4]) was 1.3 ± 0.5 number, the “Escape response (number)” value (OVX rats with anxiety; [4]) was 10.4 ± 1.4 number and the “Failure response (number)” value (OVX rats with anxiety; [4]) was 4.4 ± 1.4 number. For the same compound, the “Avoidance response (number)” value (OVX rats with anxiety; [5]) was 1.4 ± 0.4 number, the “Escape response (number)” value (OVX rats with anxiety; [5]) was 13.2 ± 0.6 number and the “Failure response (number)” value (OVX rats with anxiety; [5]) was 1.4 ± 0.5 number. The “Learning ability of the OVX rats with anxiety (result in words)” value (OVX rats with anxiety; oral diosgenin-containing pellets) was “capable of significantly improving the learning ability of the OVX rats with anxiety”, the “Avoidance response (number)” value (OVX rats without anxiety; [6]) was 1.3 ± 0.6 number and the “Escape response (number)” value (OVX rats without anxiety; [6]) was 11.7 ± 1.4 number. The “Failure response (number)” value (OVX rats without anxiety; [6]) was 3.0 ± 1.6 number, the “Avoidance response (number)” value (OVX rats without anxiety; [7]) was 1.2 ± 0.4 number and the “Escape response (number)” value (OVX rats without anxiety; [7]) was 13.8 ± 0.5 number. For the same compound, the “Failure response (number)” value (OVX rats without anxiety; [7]) was 0.7 ± 0.3 number, the “Avoidance response (number)” value (OVX rats without anxiety; [8]) was 2.5 ± 0.8 number and the “Escape response (number)” value (OVX rats without anxiety; [8]) was 12.5 ± 1.1 number. For the same compound, the “Failure response (number)” value (OVX rats without anxiety; [8]) was 0.8 ± 0.7 number, the “Number of avoidance response and number of escape response versus control group (result in words)” value (OVX rats without anxiety; diosgenin groups 1-3 (10, 50, 100 mg/kg daily oral)) was “not obviously different from those regarding the OVX rats in the control group” and the “Epidermal thickness of OVX mice” value (OVX mice; animal model of menopause) was “capable of improving epidermal thickness”. For the same compound, the “Keratinocyte proliferation in aged skin” value (OVX mice; animal model of menopause) was “able to restore keratinocyte proliferation in aged skin”, the “Degree of fat accumulation” value (OVX mice) was “without altering the degree of fat accumulation” and the Tumor growth [1] was “does not accelerate the tumor growth”. For the same compound, the “Exploration time spent on object B in the third trial, comparison among groups (result in words)” value (OVX rats; diosgenin group 2, 50 mg/kg daily oral, 26 days, FIG. 3) was “the longest”, the “Exploration time spent on object B in the third trial versus object A3 in the second trial (result in words)” value (OVX rats; each of diosgenin groups 1-3 (10, 50, 100 mg/kg daily oral, 26 days), FIG. 3) was “longer than exploration time spent on object A3 in the second trial” and the “Ability to memorize a familiar object and to recognize a difference between familiar and novel object (result in words)” value (OVX rats; oral diosgenin-containing pellets, 26 days) was “able to improve the ability to memorize a familiar object and the ability to recognize a difference between the familiar object and a novel object; also recorded: able to improve the ability to memorize a familiar object, and the ability to recognize a difference between the familiar object and a novel object”. The “Bone loss after ovariectomy” value [2] was “significantly reduced” and the “Side effects on other body organs” value [2] was “without inducing side effects on other body organs”.
In the case of `C[C@]12CC[C@H](O)CC1=CC[C@@H]1[C@@H]2CC[C@]2(C)C(=O)CC[C@@H]12` [DHEA, dehydroepiandrosterone], the “Bone loss after ovariectomy” value [2] is listed as “significantly reduced” and the “Side effects on other body organs” value [2] is listed as “without inducing side effects on other body organs”.
For estrogen, the “Bone loss after ovariectomy” value [2] is listed as “significantly reduced” and the “Side effects on other body organs” value [2] is listed as “without inducing side effects on other body organs”.
